Measurements published in patent US6989148B2, “Treatment of diabetes” (priority 1994, dated 2006).
Entries after “also recorded” stand apart in the source; their conditions may differ.

Experiments:
[1] = system: subjects with remission phase Type I diabetes; assay: Sustacal meal with intravenous GLIP infusion 1.2 pm/kg/min (Example 1); format: in vivo, human
Description: 7 subjects with remission phase Type I diabetes were studied after ingestion of a standardised meal of Sustacal (Upjohn) (delivering […]). Subjects continued their normal insulin treatment programme on the day prior to the test and, on the day of the test, omitted their morning insulin injection and arrived fasting at 8:00 am. […] Infusion was continued for 120 minutes. Blood levels of glucose, C-peptide, gastrin, glucagon and HPP were monitored by standard radioimmunoassay methods in samples taken before and at intervals during the study, up to 180 minutes. On another test day, subjects were given the Sustacal meal alone and the same analytes were similarly monitored.

Type II diabetics = conditions: Gutniak et al. (1992), WO93/18786; cited from earlier work
[2] = system: subjects with remission phase Type I diabetes; assay: Sustacal meal with infusion of 0.75 pm/kg/min GLIP versus saline (Example 3); format: in vivo, human; conditions: 0.75 pmol/kg/min GLIP along with Sustacal meal, versus saline control; FIG. 3
Description: The test was conducted as described in Example 1 and blood glucose and C-peptide levels were measured. On a further test day, the subjects were studied during saline infusion after a similar Sustacal meal.

Type 1 diabetic subject = assay: GLIP along with insulin before Sustacal meal, post-prandial glycaemia (Example 6); format: in vivo, human; conditions: 50 μg GLIP with 5 units insulin (half the usual dose) subcutaneously before meal; one subject; FIG. 6 Panel A
Description: One Type 1 diabetic subject was given GLIP along with insulin and the effects on post-prandial glycaemia observed. The subject received 5 units of insulin and 50 μg GLIP as subcutaneous injections immediately prior to ingestion of a Sustacal meal as described in Example 1. Blood levels of GLIP were monitored by a standard radioimmunoassay method.

humans and other mammals = conditions: Wettergren et al. (1993); cited from earlier work
[3] = system: subjects with remission phase Type I diabetes; assay: Intravenous glucose infusion with intravenous GLIP (Example 2); format: in vivo, human; conditions: IV GLIP 1.2 pm/kg/min for 60 min along with IV glucose 20 g over 60 min; FIG. 2
Description: Four subjects with remission phase Type I diabetes were studied during intravenous glucose infusion. Subjects prepared for the tests as described in Example 1, but received an intravenous infusion of glucose (20 g over 60 min. constant rate)instead of the Sustacal meal. […] Blood levels of glucose and C-peptide were monitored as in Example 1.

Type I diabetic subjects = assay: Sustacal meal preceded by subcutaneous GLIP injection in Type I diabetics (Example 5); format: in vivo, human; conditions: 100 μg GLIP subcutaneously prior to test meal
Excerpt: 7 Type I diabetic subjects were studied.
The results are shown in FIG. 5. *indicates statistically significant differences between treatments (p<0.05)

normal volunteers = assay: Sustacal meal preceded by subcutaneous GLIP injection in normal volunteers (Example 4); format: in vivo, human; conditions: subcutaneous GLIP (100 μg; b67 prints 1.00 μg) before Sustacal meal
Excerpt: Results are shown in FIG. 4. *indicates statistically significant differences between treatments (p<0.05).

[4] = IV infusion 1.2 pm/kg/min after Sustacal meal

## Glucagon-like peptide 1(7-36)amide [GLIP]
[1]; [4]
  blood levels of C-peptide: prevented a significant increase in blood levels of C-peptide
  plasma glucagon levels stimulated by the meal: prevented the mean rise in plasma glucagon levels
[1]; IV infusion 1.2 pm/kg/min after Sustacal meal, FIG. 1 Panel C
  secretion of pancreatic polypeptide (PP) after meal: this response was absent during GLIP infusion
[1]; IV infusion 1.2 pm/kg/min after Sustacal meal, FIG. 1 Panel E
  gastrin levels / gastrin response: normal gastrin response; also recorded: not significantly affected
[1]; IV infusion 1.2 pm/kg/min for 120 min after Sustacal meal, FIG. 1 Panel A
  blood glucose level after a meal: excellent control of blood glucose level
Type II diabetics
  effect of combination with oral hypoglycaemic agents: synergistic effect
[2]
  increase in blood glucose: increase in glucose was less than in the control experiment
  rise in C-peptide: rise in C-peptide was similar to the control experiment
Type 1 diabetic subject
  blood glucose after Sustacal meal (maximum): ≤ 8 mM
Humans and other mammals
  gastric emptying: delay of gastric emptying
[3]
  blood glucose level: improved control of blood glucose level
  secretion of endogenous insulin: stimulated secretion of endogenous insulin
Type I diabetic subjects; no morning insulin, FIG. 5 Panel A
  blood glucose levels compared to control: lowering of blood glucose levels
Type I diabetic subjects; FIG. 5 Panel D
  pancreatic polypeptide (HPP) levels: delayed rise in pancreatic polypeptide (HPP) levels
Type I diabetic subjects; FIG. 5 Panels B and C
  insulin secretion over control levels: no enhancement of insulin secretion over control levels
Normal volunteers
  increase in blood levels of C-peptide: delay in increase
  increase in blood levels of HPP: delay in increase
  increase in blood levels of glucose: delay in increase
  increase in blood levels of insulin: delay in increase
